Results as given in ChEMBL document CHEMBL5291721, “A preclinical secondary pharmacology resource illuminates target-adverse drug reaction associations of marketed drugs” (Nat Commun, 2023).

Assays:
[1] = biological target: Voltage-gated inwardly rectifying potassium channel KCNH2 (Homo sapiens, UniProt Q12809); type: functional; settings: read-out: AC50
[2] = biological target: Sodium-dependent serotonin transporter (Homo sapiens, UniProt P31645)
[3] = biological target: T1, Prostaglandin G/H synthase 1 (Homo sapiens, UniProt P23219); type: functional
D(3) dopamine receptor = D(3) dopamine receptor (Homo sapiens, UniProt P35462)
[4] = biological target: cGMP-inhibited 3',5'-cyclic phosphodiesterase 3A (Homo sapiens, UniProt Q14432); type: functional
Histamine H3 receptor = Histamine H3 receptor (Homo sapiens, UniProt Q9Y5N1)
[5] = biological target: T2, Amine oxidase [flavin-containing] A (Homo sapiens, UniProt P21397); type: functional
T2 sequence (P21397 whole entry): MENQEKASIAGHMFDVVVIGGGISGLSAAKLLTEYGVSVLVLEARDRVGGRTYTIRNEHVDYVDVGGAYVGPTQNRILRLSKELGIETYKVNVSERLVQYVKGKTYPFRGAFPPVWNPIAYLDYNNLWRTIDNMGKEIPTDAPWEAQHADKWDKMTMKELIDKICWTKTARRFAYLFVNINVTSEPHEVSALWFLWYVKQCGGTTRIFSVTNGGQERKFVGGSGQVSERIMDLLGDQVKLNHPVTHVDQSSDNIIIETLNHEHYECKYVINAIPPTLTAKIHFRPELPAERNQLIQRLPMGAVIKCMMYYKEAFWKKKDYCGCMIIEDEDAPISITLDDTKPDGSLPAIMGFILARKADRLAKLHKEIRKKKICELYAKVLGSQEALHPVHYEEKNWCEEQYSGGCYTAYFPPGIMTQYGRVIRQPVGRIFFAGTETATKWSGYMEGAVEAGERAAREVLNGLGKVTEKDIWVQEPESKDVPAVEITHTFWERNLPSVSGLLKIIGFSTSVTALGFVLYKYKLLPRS

[6] = biological target: 5-hydroxytryptamine receptor 2B (Homo sapiens, UniProt P41595); type: functional, cell-based
[7] = biological target: T3, Muscarinic acetylcholine receptor M1 (Homo sapiens, UniProt P11229); type: functional, cell-based
T3 sequence (P11229 whole entry): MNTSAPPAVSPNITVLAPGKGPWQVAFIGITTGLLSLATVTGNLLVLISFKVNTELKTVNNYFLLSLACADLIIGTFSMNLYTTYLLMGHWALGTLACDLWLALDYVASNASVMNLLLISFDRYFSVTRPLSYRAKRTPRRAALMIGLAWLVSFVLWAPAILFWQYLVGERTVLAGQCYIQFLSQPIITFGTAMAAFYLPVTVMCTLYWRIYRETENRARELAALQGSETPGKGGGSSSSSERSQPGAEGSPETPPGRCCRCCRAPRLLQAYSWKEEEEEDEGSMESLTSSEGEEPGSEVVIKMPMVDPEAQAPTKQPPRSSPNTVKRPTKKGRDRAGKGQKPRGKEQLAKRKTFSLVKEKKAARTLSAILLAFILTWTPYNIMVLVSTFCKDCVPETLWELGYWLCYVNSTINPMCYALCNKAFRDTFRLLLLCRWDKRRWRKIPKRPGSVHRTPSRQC

Progesterone receptor = biological target: T4, Progesterone receptor (Homo sapiens, UniProt P06401)
T4 sequence (P06401 whole entry): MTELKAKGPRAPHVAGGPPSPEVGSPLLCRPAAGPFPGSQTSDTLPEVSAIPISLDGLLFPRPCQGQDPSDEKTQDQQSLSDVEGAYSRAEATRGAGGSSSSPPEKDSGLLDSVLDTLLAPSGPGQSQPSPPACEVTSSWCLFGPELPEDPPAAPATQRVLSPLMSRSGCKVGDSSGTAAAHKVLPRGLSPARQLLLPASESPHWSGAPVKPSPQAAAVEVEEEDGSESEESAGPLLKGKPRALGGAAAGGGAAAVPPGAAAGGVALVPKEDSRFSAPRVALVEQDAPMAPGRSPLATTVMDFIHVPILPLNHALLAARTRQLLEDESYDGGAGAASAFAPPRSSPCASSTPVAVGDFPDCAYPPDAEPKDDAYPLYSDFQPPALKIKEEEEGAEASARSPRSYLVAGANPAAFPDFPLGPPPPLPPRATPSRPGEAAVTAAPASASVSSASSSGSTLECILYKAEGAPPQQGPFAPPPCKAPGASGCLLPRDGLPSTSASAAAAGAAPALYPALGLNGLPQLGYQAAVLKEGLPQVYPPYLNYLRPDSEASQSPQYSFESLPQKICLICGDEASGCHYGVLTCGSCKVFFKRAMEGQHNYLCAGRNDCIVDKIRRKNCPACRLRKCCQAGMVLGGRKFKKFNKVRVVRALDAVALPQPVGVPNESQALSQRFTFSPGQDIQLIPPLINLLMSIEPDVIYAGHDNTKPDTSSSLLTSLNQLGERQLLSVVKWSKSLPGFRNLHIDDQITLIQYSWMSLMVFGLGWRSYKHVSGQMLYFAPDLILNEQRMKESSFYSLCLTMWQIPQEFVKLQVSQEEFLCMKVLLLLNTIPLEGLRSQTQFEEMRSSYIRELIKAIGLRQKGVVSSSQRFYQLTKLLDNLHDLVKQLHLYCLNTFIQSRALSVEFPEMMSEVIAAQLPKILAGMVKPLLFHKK

Thromboxane A2 receptor = biological target: T5, Thromboxane A2 receptor (Homo sapiens, UniProt P21731); type: functional, cell-based
T5 sequence (P21731 whole entry): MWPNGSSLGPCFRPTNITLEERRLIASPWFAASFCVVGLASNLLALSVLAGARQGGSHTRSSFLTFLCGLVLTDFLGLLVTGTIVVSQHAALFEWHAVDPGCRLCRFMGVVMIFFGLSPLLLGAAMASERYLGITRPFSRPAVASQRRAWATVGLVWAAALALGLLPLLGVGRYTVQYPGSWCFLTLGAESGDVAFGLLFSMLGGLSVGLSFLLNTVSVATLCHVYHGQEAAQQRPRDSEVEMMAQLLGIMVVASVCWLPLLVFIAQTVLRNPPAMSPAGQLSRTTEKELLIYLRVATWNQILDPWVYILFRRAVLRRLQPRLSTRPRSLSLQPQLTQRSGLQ

[8] = biological target: T1, Prostaglandin G/H synthase 1; type: functional; remark: listed apart in the source
Prothrombin = Prothrombin (Homo sapiens, UniProt P00734); type: functional
Acetylcholinesterase = Acetylcholinesterase (Homo sapiens, UniProt P22303); type: functional
[9] = biological target: Vascular endothelial growth factor receptor 2 (Homo sapiens, UniProt P35968); type: functional
Further: assay procedure not described here.

Vascular endothelial growth factor receptor 2, sequence (P35968 whole entry): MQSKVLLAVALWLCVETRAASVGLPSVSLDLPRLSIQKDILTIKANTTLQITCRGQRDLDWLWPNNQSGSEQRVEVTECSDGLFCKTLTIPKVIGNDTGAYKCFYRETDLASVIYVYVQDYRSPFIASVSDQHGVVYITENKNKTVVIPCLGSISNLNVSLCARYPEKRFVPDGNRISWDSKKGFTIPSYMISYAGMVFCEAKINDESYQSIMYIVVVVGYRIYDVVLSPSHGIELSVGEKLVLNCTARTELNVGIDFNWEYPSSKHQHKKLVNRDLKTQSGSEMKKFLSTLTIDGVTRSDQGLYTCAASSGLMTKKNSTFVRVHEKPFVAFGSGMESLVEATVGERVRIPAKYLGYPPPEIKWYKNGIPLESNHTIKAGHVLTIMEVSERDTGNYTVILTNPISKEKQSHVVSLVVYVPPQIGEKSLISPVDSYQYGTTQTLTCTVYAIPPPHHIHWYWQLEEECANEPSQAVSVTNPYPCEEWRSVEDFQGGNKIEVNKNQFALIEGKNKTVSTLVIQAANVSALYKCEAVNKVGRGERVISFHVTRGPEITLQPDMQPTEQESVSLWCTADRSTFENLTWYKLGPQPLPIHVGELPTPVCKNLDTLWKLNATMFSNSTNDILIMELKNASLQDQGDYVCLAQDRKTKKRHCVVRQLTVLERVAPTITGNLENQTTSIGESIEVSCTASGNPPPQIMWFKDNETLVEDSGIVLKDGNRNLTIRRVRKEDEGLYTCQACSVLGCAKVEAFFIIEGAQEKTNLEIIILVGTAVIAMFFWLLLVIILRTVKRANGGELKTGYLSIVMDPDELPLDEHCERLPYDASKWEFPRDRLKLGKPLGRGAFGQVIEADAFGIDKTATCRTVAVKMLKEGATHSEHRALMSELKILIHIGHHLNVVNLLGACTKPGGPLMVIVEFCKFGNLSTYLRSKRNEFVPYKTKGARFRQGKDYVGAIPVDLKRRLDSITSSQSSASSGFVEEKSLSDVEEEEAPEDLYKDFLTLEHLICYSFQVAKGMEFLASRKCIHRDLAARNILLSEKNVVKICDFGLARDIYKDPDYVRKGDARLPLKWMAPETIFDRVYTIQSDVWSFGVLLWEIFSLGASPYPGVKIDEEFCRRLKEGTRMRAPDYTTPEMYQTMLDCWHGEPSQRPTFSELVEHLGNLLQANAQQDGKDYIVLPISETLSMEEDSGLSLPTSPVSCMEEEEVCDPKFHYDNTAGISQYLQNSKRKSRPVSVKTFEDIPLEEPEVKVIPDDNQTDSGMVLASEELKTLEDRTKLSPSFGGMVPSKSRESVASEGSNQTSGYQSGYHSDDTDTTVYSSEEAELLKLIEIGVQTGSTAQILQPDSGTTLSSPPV
Acetylcholinesterase, sequence (P22303 whole entry): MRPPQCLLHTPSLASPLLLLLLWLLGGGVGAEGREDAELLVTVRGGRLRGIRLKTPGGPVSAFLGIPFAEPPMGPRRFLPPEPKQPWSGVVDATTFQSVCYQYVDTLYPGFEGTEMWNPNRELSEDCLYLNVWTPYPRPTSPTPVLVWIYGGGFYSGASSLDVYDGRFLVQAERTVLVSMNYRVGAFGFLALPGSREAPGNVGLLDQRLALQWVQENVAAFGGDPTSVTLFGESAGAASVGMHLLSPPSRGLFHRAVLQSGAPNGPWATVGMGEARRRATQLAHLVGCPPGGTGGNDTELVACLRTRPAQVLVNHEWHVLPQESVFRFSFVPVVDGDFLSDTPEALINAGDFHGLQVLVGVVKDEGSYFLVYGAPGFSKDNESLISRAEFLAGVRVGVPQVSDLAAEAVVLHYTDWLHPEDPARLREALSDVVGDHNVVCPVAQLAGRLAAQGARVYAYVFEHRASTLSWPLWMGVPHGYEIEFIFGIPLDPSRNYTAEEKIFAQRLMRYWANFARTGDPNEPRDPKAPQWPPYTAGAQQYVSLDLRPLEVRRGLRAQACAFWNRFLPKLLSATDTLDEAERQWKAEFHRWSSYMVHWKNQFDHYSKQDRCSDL
Histamine H3 receptor, sequence (Q9Y5N1 whole entry): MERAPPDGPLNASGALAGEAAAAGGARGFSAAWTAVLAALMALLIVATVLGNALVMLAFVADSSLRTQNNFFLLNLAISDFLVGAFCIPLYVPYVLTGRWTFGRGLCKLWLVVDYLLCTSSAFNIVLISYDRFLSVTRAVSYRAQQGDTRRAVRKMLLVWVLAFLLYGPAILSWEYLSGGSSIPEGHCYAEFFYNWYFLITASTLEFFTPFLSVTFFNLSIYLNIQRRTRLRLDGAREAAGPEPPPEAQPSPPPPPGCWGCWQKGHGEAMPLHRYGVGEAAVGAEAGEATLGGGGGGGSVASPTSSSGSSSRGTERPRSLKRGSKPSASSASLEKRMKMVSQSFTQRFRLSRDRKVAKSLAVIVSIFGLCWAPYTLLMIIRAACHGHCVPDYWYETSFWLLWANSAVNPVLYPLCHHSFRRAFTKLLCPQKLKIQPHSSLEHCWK
T1 sequence (P23219 whole entry): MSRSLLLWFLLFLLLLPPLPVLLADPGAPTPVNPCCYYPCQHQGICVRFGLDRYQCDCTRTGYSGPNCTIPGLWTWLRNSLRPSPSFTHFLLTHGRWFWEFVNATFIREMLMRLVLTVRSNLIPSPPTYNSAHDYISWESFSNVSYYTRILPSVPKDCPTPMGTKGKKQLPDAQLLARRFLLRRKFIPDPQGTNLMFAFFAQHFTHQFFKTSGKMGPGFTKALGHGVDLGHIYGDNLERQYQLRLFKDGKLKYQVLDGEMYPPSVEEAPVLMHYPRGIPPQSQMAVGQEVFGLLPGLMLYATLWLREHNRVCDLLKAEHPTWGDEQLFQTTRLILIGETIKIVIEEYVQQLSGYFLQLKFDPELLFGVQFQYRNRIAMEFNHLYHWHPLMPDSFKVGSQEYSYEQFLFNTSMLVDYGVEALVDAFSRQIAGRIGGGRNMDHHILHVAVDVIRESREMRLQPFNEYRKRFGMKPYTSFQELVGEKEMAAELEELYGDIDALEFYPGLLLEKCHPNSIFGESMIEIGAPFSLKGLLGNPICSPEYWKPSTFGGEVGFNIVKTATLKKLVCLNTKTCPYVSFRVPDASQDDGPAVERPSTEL
Sodium-dependent serotonin transporter, sequence (P31645 whole entry): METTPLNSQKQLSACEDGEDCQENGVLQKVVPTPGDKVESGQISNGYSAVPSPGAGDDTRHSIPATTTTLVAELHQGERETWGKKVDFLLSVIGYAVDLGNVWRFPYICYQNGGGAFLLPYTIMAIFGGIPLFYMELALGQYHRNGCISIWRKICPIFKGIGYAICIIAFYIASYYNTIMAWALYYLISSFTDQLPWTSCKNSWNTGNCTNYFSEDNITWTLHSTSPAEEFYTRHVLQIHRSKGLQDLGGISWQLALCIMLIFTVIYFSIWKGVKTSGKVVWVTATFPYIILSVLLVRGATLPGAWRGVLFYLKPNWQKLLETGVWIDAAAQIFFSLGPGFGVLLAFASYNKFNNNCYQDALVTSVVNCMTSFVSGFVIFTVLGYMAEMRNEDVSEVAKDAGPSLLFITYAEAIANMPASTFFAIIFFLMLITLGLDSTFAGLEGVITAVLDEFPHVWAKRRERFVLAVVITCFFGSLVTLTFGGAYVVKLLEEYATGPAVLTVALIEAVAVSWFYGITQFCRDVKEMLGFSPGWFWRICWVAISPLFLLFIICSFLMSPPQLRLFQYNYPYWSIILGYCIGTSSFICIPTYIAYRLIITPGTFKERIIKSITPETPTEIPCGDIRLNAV
5-hydroxytryptamine receptor 2B, sequence (P41595 whole entry): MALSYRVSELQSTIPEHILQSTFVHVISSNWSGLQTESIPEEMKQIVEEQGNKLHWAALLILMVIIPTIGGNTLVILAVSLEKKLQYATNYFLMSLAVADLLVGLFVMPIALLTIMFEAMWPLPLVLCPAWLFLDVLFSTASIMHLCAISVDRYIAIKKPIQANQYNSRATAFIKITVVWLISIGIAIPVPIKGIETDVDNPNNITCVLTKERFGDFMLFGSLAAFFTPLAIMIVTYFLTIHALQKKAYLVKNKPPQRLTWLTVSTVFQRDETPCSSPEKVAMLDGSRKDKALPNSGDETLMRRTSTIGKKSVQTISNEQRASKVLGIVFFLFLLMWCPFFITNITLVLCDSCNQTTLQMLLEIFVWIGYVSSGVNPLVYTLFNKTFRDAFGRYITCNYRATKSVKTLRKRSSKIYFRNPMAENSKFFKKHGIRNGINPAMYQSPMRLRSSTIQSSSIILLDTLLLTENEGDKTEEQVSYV
D(3) dopamine receptor, sequence (P35462 whole entry): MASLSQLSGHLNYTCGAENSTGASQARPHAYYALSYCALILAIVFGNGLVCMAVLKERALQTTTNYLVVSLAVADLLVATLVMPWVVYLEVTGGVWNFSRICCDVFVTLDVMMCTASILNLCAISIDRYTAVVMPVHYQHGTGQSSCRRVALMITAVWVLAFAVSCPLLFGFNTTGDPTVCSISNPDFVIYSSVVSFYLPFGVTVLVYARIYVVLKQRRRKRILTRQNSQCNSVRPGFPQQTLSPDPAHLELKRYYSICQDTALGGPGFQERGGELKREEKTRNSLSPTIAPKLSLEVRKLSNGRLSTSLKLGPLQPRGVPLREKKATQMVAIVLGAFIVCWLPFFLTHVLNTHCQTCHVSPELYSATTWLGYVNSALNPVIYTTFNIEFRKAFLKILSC

Structure (SMILES)	AC50 [1]	AC50 [2]	AC50 [3]	AC50 (D(3) dopamine receptor)	AC50 [4]	AC50 (Histamine H3 receptor)	AC50 [5]	AC50 [6]	AC50 [7]	AC50 (Progesterone receptor)	AC50 (Thromboxane A2 receptor)	AC50 [8]	AC50 (Prothrombin)	AC50 (Acetylcholinesterase)	AC50 [9]
COc1ccc2c(c1)N(C[C@H](C)CN(C)C)c1ccccc1S2 [LEVOMEPROMAZINE]	11 µM	> 30 µM	> 30 µM	0.019 µM	> 30 µM	> 30 µM	> 30 µM	> 30 µM	0.331 µM	> 30 µM	> 30 µM	11.3 µM	> 30 µM	> 30 µM	> 30 µM
Cc1ccccc1OCC(O)CO (stereo not given) [MEPHENESIN]	> 30 µM	> 30 µM	> 30 µM	> 30 µM	> 30 µM	> 30 µM	> 30 µM	> 30 µM	> 30 µM	> 30 µM	> 30 µM	> 30 µM	> 30 µM	> 30 µM	> 30 µM
C[N+]1(CCCCC[N+]2(C)CCCC2)CCCC1 [PENTOLINIUM]	> 30 µM	> 30 µM	> 30 µM	> 30 µM	> 30 µM	> 30 µM	> 30 µM	> 30 µM	> 30 µM	> 30 µM	> 30 µM	> 30 µM	> 30 µM	> 30 µM	> 30 µM
O=C(O)c1ccccc1C(=O)Nc1ccc(S(=O)(=O)Nc2nccs2)cc1 [PHTHALYLSULFATHIAZOLE]	> 30 µM	> 30 µM	20 µM	> 30 µM	> 30 µM	> 30 µM	> 30 µM	> 30 µM	> 30 µM	> 30 µM	> 30 µM	8.95 µM	> 30 µM	> 30 µM	> 30 µM
CC(C)(C)C(=O)OCOC(=O)[C@@H]1N2C(=O)[C@@H](NC(=O)[C@H](N)c3ccccc3)[C@H]2SC1(C)C [PIVAMPICILLIN]	> 30 µM	> 30 µM	> 30 µM	> 30 µM	> 30 µM	> 30 µM	> 30 µM	> 30 µM	23 µM	> 30 µM	> 30 µM	7.48 µM	> 30 µM	> 30 µM	> 30 µM
CC(C)COC(=O)OCN1C(=O)CN(CCN2CC(=O)N(COC(=O)OCC(C)C)C(=O)C2)CC1=O [SOBUZOXANE]	> 30 µM	> 30 µM	29.8 µM	> 30 µM	> 30 µM	> 30 µM	> 30 µM	> 30 µM	> 30 µM	> 30 µM	> 30 µM	> 30 µM	> 30 µM	> 30 µM	> 30 µM
Cc1cc(NS(=O)(=O)c2ccc(N)cc2)nc(C)n1 [SULFISOMIDINE]	> 30 µM	> 30 µM	> 30 µM	> 30 µM	> 30 µM	> 30 µM	> 30 µM	> 30 µM	> 30 µM	> 30 µM	> 30 µM	> 30 µM	> 30 µM	> 30 µM	> 30 µM
OB1OCc2cc(F)ccc21 [TAVABOROLE]	> 30 µM	> 30 µM	> 30 µM	> 30 µM	14.1 µM	> 30 µM	> 30 µM	> 30 µM	> 30 µM	> 30 µM	> 30 µM	> 30 µM	> 30 µM	> 30 µM	> 30 µM
Nc1ccc(S(=O)(=O)c2cnc(N)s2)cc1 [THIAZOLSULFONE]	> 30 µM	> 30 µM	> 30 µM	> 30 µM	> 30 µM	> 30 µM	> 30 µM	> 30 µM	> 30 µM	> 30 µM	> 30 µM	> 30 µM	> 30 µM	> 30 µM	> 30 µM
CC(CNC(=O)c1ccccc1)C(=O)OCC(=O)[C@@]12OC(C)(C)O[C@@H]1C[C@H]1[C@@H]3CCC4=CC(=O)C=C[C@]4(C)[C@@]3(F)[C@@H](O)C[C@@]12C (stereo not given in full) [TRIAMCINOLONE BENETONIDE]	> 30 µM	> 30 µM	> 30 µM	> 30 µM	> 30 µM	> 30 µM	> 30 µM	> 30 µM	> 30 µM	> 30 µM	> 30 µM	> 30 µM	> 30 µM	> 30 µM	> 30 µM
O=C(Nc1ccc(Cl)cc1)Nc1ccc(Cl)c(Cl)c1 [TRICLOCARBAN]	> 30 µM	> 30 µM	> 30 µM	> 30 µM	11.6 µM	> 30 µM	> 30 µM	> 30 µM	0.702 µM	> 30 µM	> 30 µM	> 30 µM	> 30 µM	> 30 µM	> 30 µM
OC[C@@H](O)[C@H](O)[C@@H](O)CO [XYLITOL]	> 30 µM	> 30 µM	> 30 µM	> 30 µM	> 30 µM	> 30 µM	> 30 µM	> 30 µM	> 30 µM	> 30 µM	> 30 µM	> 30 µM	> 30 µM	> 30 µM	> 30 µM
